Assays:
[1] = tested on: NALM-6 (B-Lymphoblastic Leukemia); test: combination Emax (second highest fraction inhibited in the dose matrix, 72 h); higher = more inhibition; extreme values may be limits of the assay
Summary of the method: (§1)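 Cell lines in DMEM/F12 or RPMI with 10% FBS were plated in 1536-well plates, held 24 hours at 37°C, 5% CO2, then given two-drug dose matrices for 72 hours (DMSO typically 0.2%). Viability was read by CellTiter-Glo 2.0 luminescence and scaled as inhibition from 0 (vehicle wells) to 1 (blank wells). Combination Emax is the second-highest inhibition in the matrix; Bliss excess is observed combination effect minus expected EA + EB − EA·EB, EA and EB being single-agent effects.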

NCI-H2369 (Mesothelioma) [2] = test: as above
Summary of the method: as §1

NCI-H2595 (Mesothelioma) = test: as above
Summary of the method: as §1

[3] = tested on: MFH-ino (Other Solid Carcinomas); test: as above
Summary of the method: as §1

[4] = tested on: SUIT-2 (Pancreatic Carcinoma); test: as above
Summary of the method: as §1

[5] = tested on: OCI-AML2 (Acute Myeloid Leukemia); test: as above
Summary of the method: as §1

[6] = tested on: SW1088 (Low Grade Glioma); test: as above
Summary of the method: as §1

[7] = tested on: LS-513 (Colorectal Carcinoma); test: as above
Summary of the method: as §1

[8] = tested on: U-266 (Plasma Cell Myeloma); test: as above
Summary of the method: as §1

[9] = tested on: NALM-6 (B-Lymphoblastic Leukemia); test: Bliss excess, mean over the matrix (fraction); higher = more synergy
Summary of the method: as §1

NCI-H2369 (Mesothelioma) [10] = test: as above
Summary of the method: as §1

[11] = tested on: SW1783 (Low Grade Glioma); test: as above
Summary of the method: as §1

[12] = tested on: TE-5 (Esophageal Squamous Cell Carcinoma); test: as above
Summary of the method: as §1

[13] = tested on: NCI-H1694 (Small Cell Lung Carcinoma); test: as above
Summary of the method: as §1

[14] = tested on: SUIT-2 (Pancreatic Carcinoma); test: as above
Summary of the method: as §1

[15] = tested on: DMS-273 (Small Cell Lung Carcinoma); test: as above
Summary of the method: as §1

[16] = tested on: IHH-4 (Thyroid Gland Carcinoma); test: as above
Summary of the method: as §1

[17] = tested on: MDA-MB-157 (Breast Carcinoma); test: as above
Summary of the method: as §1

[18] = tested on: JiyoyeP-2003 (Burkitt's Lymphoma); test: as above
Summary of the method: as §1

[19] = tested on: LS-513 (Colorectal Carcinoma); test: as above
Summary of the method: as §1
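Throughout, for Bliss excess, mean over the matrix: after 72 h of two-drug dosing.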

SMILES	combination Emax [1]	combination Emax (NCI-H2369 (Mesothelioma) [2])	combination Emax (NCI-H2595 (Mesothelioma))	combination Emax [3]	combination Emax [4]	combination Emax [5]	combination Emax [6]	combination Emax [7]	combination Emax [8]	Bliss excess [9]	Bliss excess (NCI-H2369 (Mesothelioma) [10])	Bliss excess [11]	Bliss excess [12]	Bliss excess [13]	Bliss excess [14]	Bliss excess [15]	Bliss excess [16]	Bliss excess [17]	Bliss excess [18]	Bliss excess [19]
Cc1c2c(nn1C)CSCc1cc(n(C)n1)CSc1cc(c3ccccc3c1)OCCCc1c(C(=O)O)n(C)c3c-2c(Cl)ccc13 [AZD5991] + CC1(C)CCC(CN2CCN(c3ccc(C(=O)NS(=O)(=O)c4ccc(NCC5CCOCC5)c([N+](=O)[O-])c4)c(Oc4cnc5[nH]ccc5c4)c3)CC2)=C(c2ccc(Cl)cc2)C1 [Venetoclax] (first compound max 1 µM, 7x7, partner max 1 µM)	0.949	0.147	0.267	0.182	0.209	1	0.248	0.18	0.97	0.173	-0.0027	-0.0164	0.037	0.076	-0.0287	-0.0099	0.0037	0.004	0.0249	-0.0523
Cc1c2c(nn1C)CSCc1cc(n(C)n1)CSc1cc(c3ccccc3c1)OCCCc1c(C(=O)O)n(C)c3c-2c(Cl)ccc13 [AZD5991] + CCN(CCO)CCCOc1ccc2c(Nc3cc(CC(=O)Nc4cccc(F)c4)[nH]n3)ncnc2c1 [AZD2811] (first compound max 1 µM, 7x7, partner max 1 µM)	0.655	0.176	0.324	0.251	0.19	1	0.494	0.623	0.945	-0.0839	-0.0156	-0.0135	-0.0313	0.0939	0.0126	-0.0949	0.0306	0.078	0.0917	0.0137
Cc1c2c(nn1C)CSCc1cc(n(C)n1)CSc1cc(c3ccccc3c1)OCCCc1c(C(=O)O)n(C)c3c-2c(Cl)ccc13 [AZD5991] + CN(C)CCCOc1ccc(-c2ccc3ncc4c(c3c2)n(C2CCOCC2)c(=O)n4C)cn1 [AZD0156] (first compound max 1 µM, 7x7, partner max 1 µM)	0.408	0.208	0.328	0.22	0.217	0.961	0.242	0.275	0.919	0.0032	0.0002	-0.0074	-0.0081	0.0033	0.0035	0.0401	0.0541	-0.0169	-0.0359	-0.0378
Cc1c2c(nn1C)CSCc1cc(n(C)n1)CSc1cc(c3ccccc3c1)OCCCc1c(C(=O)O)n(C)c3c-2c(Cl)ccc13 [AZD5991] + C[C@@H]1COCCN1C2=NC(=NC(=C2)C3(CC3)[S@](=N)(=O)C)C4=C5C=CNC5=NC=C4 [AZD6738] (first compound max 1 µM, 7x7, partner max 10 µM)	0.895	0.247	0.299	0.524	0.424	1	0.565	0.752	0.95	-0.0114	0.0442	0.0272	-0.0294	0.0064	-0.0025	0.0196	0.0349	-0.0076	0.0159	0.0383
Cc1c2c(nn1C)CSCc1cc(n(C)n1)CSc1cc(c3ccccc3c1)OCCCc1c(C(=O)O)n(C)c3c-2c(Cl)ccc13 [AZD5991] + C[C@@H](Nc1cc(F)cc(F)c1)c1cc(C(=O)N(C)C)cc2c(=O)cc(N3CCOCC3)oc12 [AZD8186] (first compound max 1 µM, 7x7, partner max 3 µM)	0.672	0.24	0.336	0.234	0.175	0.946	0.533	0.255	0.894	0.0341	-0.004	0.0037	-0.0172	0.0151	-0.015	-0.0094	0.0184	0.0836	0.0635	-0.0331
Cc1c2c(nn1C)CSCc1cc(n(C)n1)CSc1cc(c3ccccc3c1)OCCCc1c(C(=O)O)n(C)c3c-2c(Cl)ccc13 [AZD5991] + Cn1cnc2c(F)c(Nc3ccc(Br)cc3Cl)c(C(=O)NOCCO)cc21 [Selumetinib] (first compound max 1 µM, 7x7, partner max 3 µM)	0.369	0.151	0.283	0.358	0.285	1	0.229	0.796	0.985	0.0165	0.0081	-0.0782	-0.0146	-0.0048	-0.0135	-0.0137	-0.026	-0.0098	0.0039	-0.0242
C[C@@H]1COCCN1c1cc(C2([S@](C)(=N)=O)CC2)nc(-c2ccnc3[nH]ccc23)n1 [AZD6738] + O=C(c1cc(Cc2n[nH]c(=O)c3ccccc23)ccc1F)N1CCN(C(=O)C2CC2)CC1 [Olaparib] (first compound max 10 µM, 7x7, partner max 10 µM)	0.976	0.133	0.214	0.576	0.676	0.988	0.501	0.722	0.584	0.0015	-0.0344	0.0376	-0.021	0.0089	-0.0264	-0.0473	0.0506	-0.0453	0.0005	0.0419
